Tests used:
[1] = Biodistribution and elimination by optical imaging after intravenous administration; type: in vivo, Balb/c nu/nu mice; conditions: ex vivo, 24 hours after iv 1 nmol/mouse
Protocol: Biodistribution and elimination of the fluorescent agents of the invention was evaluated by optical imaging after intravenous administration in male Balb/c nu/nu mice, 6-10 weeks of age (Charles River Laboratories). Briefly, mice housed 4 per cage and fed with VRF1 (P) sterile diet (Special Diets Services Ltd) up to the end of the acclimation period (5 days). Then, AIN-76a rodent diet irradiated (Research Diets), a special diet that reduces auto-fluorescence, was used up to the end of the experiments. Imaging experiments were performed using the preclinical optical system IVIS Spectrum (Perkin Elmer).
In vivo imaging was performed under gas anesthesia (Sevofluorane 6-8% in oxygen). Animals were intravenously injected with the compounds and imaged longitudinally at 30 min, 1 h, 2 h, 3 h, 4 h, 6 h, and 24 h post-administration. Thus, animals were euthanized by anesthesia overdose, and the main tissues and organs of interest were excised for ex vivo optical imaging. Regions of interest (ROIs) were drawn on the tissues of interest for each fluorescence image at every time point to evaluate signal intensity (expressed as Average adiant Efficiency). The ratio between the fluorescence signal in the muscle (background tissue) and excretory organs (kidney, liver) was then calculated to assess the contrast. The tissue half-life was calculated by fitting the fluorescence signal decay in the muscle with a bi-exponential decay equation model using GraphPad Prism Software (version 5 for Windows).

[2] = molecular target: T1, human recombinant integrin αvβ3 (Homo sapiens, UniProt P05106+P06756); experiment: Integrin receptor affinity ELISA (vitronectin-coated plates); type: binding
T1 construct: purchased R&D Systems

[3] = test system: WM-266-4 human melanoma cells; experiment: Cell uptake by flow cytometry (FACS); type: cell-based
Protocol: The human melanoma cell line WM-266-4 (ATCC, CRL-1676) was used as in vitro model to assess the cell uptake of representative integrin-binding Compounds 1 and 3, based on the high expression of the integrin receptors, particularly αvβ3, on the membrane of these cells (Capasso et al., PlosOne 2014).
Adherent cells at about 70% confluence were incubated with the compounds 1 or 3 (1 μM) for 2h at 37° C. (5% CO2) in presence of Dulbecco's Modified Eagle's Medium (DMEM) supplemented with 10% FBS, 2 mM glutamine, 100 IU/mL penicillin and 100 μg/mL streptomycin. After two washing steps with PBS, cells were detached using 0.1 mM EDTA in PBS, centrifuged and suspended in buffer (PBS, 0.5% BSA, 0.1% NaN3) for flow cytometry experiments. Fluorescence Activated Cell Sorting (FACS) was used to detect the fluorescence signal within the cells, as measure of cell uptake. Samples were excited with an Argon laser and the emission detected using a 670 nm longpass filter. Values of fluorescence intensity were obtained from the histogram statistic produced by the instrument software.
The residual internalization was calculated by considering the value of fluorescence intensity in absence of the competitor as 100%.
Furthermore, to assess the effect of biological fluids on the cell uptake, parallel experiments were performed incubating the cells with a compounds of the invention in presence of human serum from male AB plasma (Sigma Aldrich, H4522) or human albumin (Sigma Aldrich, A9511). The residual internalization was calculated by considering the value of fluorescence intensity in absence of the serum as 100%. Such uptake assessment also represents an indication of the percentage of compound which is sequestered by the plasma proteins, in particular albumin, when it diffuses through the vascular compartment before reaching the tissue of interest and the particular targeted receptor.

[4] = molecular target: T2, human serum albumin (HSA) (Homo sapiens, UniProt P02768); experiment: Binding affinity to human serum albumin (absorbance peak shift or ultrafiltration method); conditions: for Kd: phosphate buffer, 25° C., one of the two methods, read-out: HSA affinity (KA) (converted)
T2 construct: purchased Sigma Aldrich A9511
Protocol: Binding affinity to human serum albumin (HSA; Sigma Aldrich, A9511) was measured using two methods, according to the level of binding affinity of the compounds.
The first method, optimal for compounds which strongly interact with HSA, is based on the analysis of the absorbance spectrum peak shift after the incubation of the dye in solutions containing HSA. Briefly, the samples were incubated at a fixed concentration (1 μM) with HSA dilutions (1×10^−6-4×10^−4M), in phosphate buffer for 5 min in the spectrophotometer at 25° C. before measurements. The measure was performed at the maximum absorbance wavelength of the shifted peak.
The second method, optimal for compound with low affinity for HSA, is based on measuring the variation of the absorbance of solutions containing the dye and various concentrations of HSA after ultrafiltration. Briefly, each compound was incubated at a fixed concentration (2 μM) with HSA dilutions (1×10^−6-4×10^−4 M), in phosphate buffer. The samples were centrifuged (10,000 g for 30 min at 25° C.) in a Microcon device (10 kDa MWCO, Amicon Ultra-0.5 Centrifugal Filter Unit with Ultracel-10 membrane, Millipore) and the absorbance measurements of the filtrates were obtained with the spectrophotometer at the maximum absorbance wavelength of the fluorophore.
For both methods, the affinity constant (KA, M^−1) was calculated by fitting the raw data with the following formula:
wherein ΔA/b=Absorbance measured (b=1 cm) KRL=KA calculated by regression analysis (curve fitting) Δε·Rt calculated by regression analysis (curve fitting) [L]=Albumin concentration
In the first method, ΔA/b corresponds to the absorbance measured for each sample, whereas in the second method ΔA/b is obtained subtracting the absorbance of the control sample (dye without HSA) to the absorbance of each other sample.
However, the measurement of the affinity constant is more precise when the suitable method is used as a function of the affinity level of the compound.

[5] = Optical properties: excitation/emission maxima and absolute fluorescence quantum yield; type: physicochemical
Protocol: Analysis were performed with a Waters Atlantis dC18 5 μm, 4.6×150 mm column using a gradient of phase A CH3COONH4 10 mM and phase B acetonitrile. Measured mass/charge ratios are listed for each compound. A dual-beam UV-VIS spectrophotometer (Lambda 40, Perkin Elmer) was used to determine the absorbance (Abs) of the compounds of the invention. […] The measurements were performed using an excitation wavelength at maximum absorbance of different dyes, and the sample was excited with a […] Xenon Light Source. Detection was performed by photomultiplier tubes (PMT-NIR) cooled detector or by TBX-04 detector. Dye solutions were carefully prepared to have an absorbance lower than 0.1 (optical densities) to minimize re-absorption phenomena. The compounds of the invention have been characterized in terms of their optical properties in vitro in aqueous medium (i.e., water/PBS pH 7.4) and in a clinical chemistry control serum (Seronorm, Sero SA), mimicking the chemical composition and optical properties of human serum. All dye or dye-conjugate solutions were freshly prepared.

Compound	Kidney to muscle ratio [1]	Liver to muscle ratio [1]	IC50 [2] [nM]	Residual cell uptake in presence of human serum ([3]; 1 μM, 2h at 37° C., uptake without serum = 100%) [%]	Residual uptake in the presence of c(RGDfK) as competitor ([3]; 100 μM c(RGDfK), uptake without competitor = 100%) [%]	Kd [4] [µM]	Max Em ([5]; PBS pH 7.4) [nm]	Max Ex ([5]; PBS pH 7.4) [nm]	Φ (absolute fluorescence quantum yield) ([5]; PBS pH 7.4) [%]	Φ (absolute fluorescence quantum yield) ([5]; Seronorm control serum) [%]	HSA KA ([4]; first method (absorbance peak shift))	HSA KA ([4]; second method (ultrafiltration))
CC(CC[N+]1=C(/C=C/C=C/C=C/C=C2/N(CCCCCC(=O)NCC3C[C@@H]4CC[C@H]5C(=O)N[C@@H](CCCNC(=N)N)C(=O)NCC(=O)N[C@@H](CC(=O)O)C(=O)N[C@H]3C(=O)N45)c3ccc(C(=O)NCC(O)C(O)C(O)C(O)CO)cc3C2(C)C)C(C)(C)c2cc(C(=O)NCC(O)C(O)C(O)C(O)CO)ccc21)S(=O)(=O)[O-] (stereo partly drawn) [Compound 3]	2.90 ± 0.55	2.50 ± 0.32	2.64 ± 0.35	75	15	238	785	757	10.6	11.7		
CC(CC[N+]1=C(/C=C/C=C/C=C/C=C2/N(CCCCCC(=O)O)c3ccc(C(=O)NCC(O)C(O)C(O)C(O)CO)cc3C2(C)C)C(C)(C)c2cc(C(=O)NCC(O)C(O)C(O)C(O)CO)ccc21)S(=O)(=O)[O-] (stereo not drawn) [Compound 4]						196	785	755	8.9	13.4		
CC1(C)C(/C=C/C=C/C=C2/N(CCCCCC(=O)O)c3ccc(C(=O)NCC(O)C(O)C(O)C(O)CO)cc3C2(C)C)=[N+](CCCCS(=O)(=O)[O-])c2ccc(C(=O)NCC(O)C(O)C(O)C(O)CO)cc21 (stereo not drawn) [Compound 6]						> 1000	675	656	35.6	35.9		
CC1(C)C(/C=C/C=C/C=C2/N(CCCCCC(=O)O)c3ccc(C(=O)NC(CO)(CO)CO)cc3C2(C)C)=[N+](CCCCS(=O)(=O)[O-])c2ccc(C(=O)NC(CO)(CO)CO)cc21 [Compound 7]						289	675	655	35.1	35.1		
CC1(C)C(/C=C/C=C/C=C/C=C2\N(CCCCS(=O)(=O)O)c3ccc4ccccc4c3C2(C)C)=[N+](CCCCS(=O)(=O)[O-])c2ccc3ccccc3c21 [ICG, Indocyanine Green, reference compound]						2.88	810	780	1.5	7.8		
CN1/C(=C/C=C/C=C/C2=[N+](CCCCCC(=O)O)c3ccc(S(=O)(=O)[O-])cc3C2(C)C)C(C)(C)c2cc(S(=O)(=O)O)ccc21 [Sulfo-Cy5, reference compound]							665	645	27.0	35.6		
IRDye 800CW carboxylate [reference compound]											215,000 M^−1	216,000 M^−1

Source: US20220242853A1, “MODIFIED CYANINE DYES AND CONJUGATES THEREOF” (BRACCO IMAGING S.P.A., priority 2019, published 2022)
